Test results reported in BindingDB's records for doi:10.1111/cbdd.12105 (Umdnj-New Jersey Medical School, 2013).

The compounds below were run against Genome polyprotein (Hepatitis C virus genotype 1b (isolate BK), UniProt P26663) (assay: NS5B Inhibition Assay). Conditions: pH 7; 30 °C.
Sequence of Genome polyprotein (P26663 2420-3010 limits assumed): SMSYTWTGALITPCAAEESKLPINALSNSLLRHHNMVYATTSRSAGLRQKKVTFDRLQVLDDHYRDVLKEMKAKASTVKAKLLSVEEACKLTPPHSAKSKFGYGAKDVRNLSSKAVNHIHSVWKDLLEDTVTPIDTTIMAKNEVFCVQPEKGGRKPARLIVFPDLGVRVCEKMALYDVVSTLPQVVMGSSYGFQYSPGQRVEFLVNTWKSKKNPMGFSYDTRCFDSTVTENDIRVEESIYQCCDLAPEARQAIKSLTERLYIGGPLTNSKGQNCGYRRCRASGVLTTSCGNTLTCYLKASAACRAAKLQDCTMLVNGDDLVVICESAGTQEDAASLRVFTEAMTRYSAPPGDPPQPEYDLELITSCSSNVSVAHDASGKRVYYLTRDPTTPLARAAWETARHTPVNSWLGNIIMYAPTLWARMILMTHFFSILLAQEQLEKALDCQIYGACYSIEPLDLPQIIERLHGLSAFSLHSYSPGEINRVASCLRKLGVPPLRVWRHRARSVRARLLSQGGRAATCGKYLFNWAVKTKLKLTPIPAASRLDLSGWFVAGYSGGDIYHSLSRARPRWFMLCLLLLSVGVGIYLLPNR
Text: Inhibition assay using HCV NS5B.
`O=c1cc(-c2ccccc2)c2c(O)cc(O)cc2o1` showed an IC50 of 27 µM.
For `Cc1cc(=O)oc2cc(O)ccc12` [4-Methyl-7-hydroxycoumarin], the IC50 was 33.8 µM.
`COc1cc(OC)c2c(-c3ccccc3)cc(=O)oc2c1` [5,7-dimethoxy-4-phenyl-chromen-2-one] gave an IC50 of 63 µM.
`O=c1cc(-c2ccccc2)c2ccc(O)cc2o1` [7-Hydroxy-4-phenyl-chromen-2-one] was tested, and the IC50 was 41.6 µM.
Compound `O=c1ccc2c(O)cc(O)cc2o1` [Coumarin derivative, 1a] has an IC50 of 39.7 µM.
Work on `Cc1cc(=O)oc2cc(O)cc(O)c12` [Coumarin derivative, 1b] yielded an IC50 of 47.2 µM.
`COc1cc(OC)c2ccc(=O)oc2c1` [Coumarin derivative, 2a] gave an IC50 of 58 µM.
`COc1cc(OC)c2c(C)cc(=O)oc2c1` [Coumarin derivative, 2b] gave an IC50 of 54.1 µM.
In the case of `COc1cc2c(cc1O)oc(=O)c1c3cc(O)c(O)cc3oc21` [LQB-34], the IC50 is reported as 18 µM.
In the case of `C=CCOc1cc(OCC=C)c2ccc(=O)oc2c1` [Neoflavonoid derivative, 6a], the IC50 is reported as 26.2 µM.
`C=CCOc1cc(OCC=C)c2c(C)cc(=O)oc2c1` [Neoflavonoid derivative, 6b] gave an IC50 of 38.4 µM.
`C=CCOc1cc(OCC=C)c2c(-c3ccccc3)cc(=O)oc2c1` [Neoflavonoid derivative, 6c] gave an IC50 of 30.3 µM.
Work on `C=CCc1c(O)c(CC=C)c2oc(=O)ccc2c1O` [Neoflavonoid derivative, 8a] yielded an IC50 of 17.9 µM.
`C=CCc1c(O)c(CC=C)c2oc(=O)cc(-c3ccccc3)c2c1O` [Neoflavonoid derivative, 8c] showed an IC50 of 45.8 µM.
For `O=c1ccc2ccc(O)cc2o1` [umbelliferone], the IC50 was 36.6 µM.
